One assay relates to Enterobacter asburiae. Description: Antibacterial activity against Enterobacter asburiae KRICT3 at 1.6 mg/l after 24 hr. Format: functional, organism-based.
For a further assay, the system named is Serratia marcescens. Description: Antibacterial activity against Serratia marcescens subsp. marcescens KRICT4 at 1.6 mg/l after 24 hr. Format: functional, organism-based.
Assay [1] relates to Bursaphelenchus xylophilus. Description: Nematicidal activity against Bursaphelenchus xylophilus in pot-grown three-year-old trees of Pinus densiflora assessed as reduction of disease incidence at 2% treated 3 months before inoculation measured after 9 months by measuring dead trees relative to control. Format: functional. On the set-up: scale not given: the % may be the effect or the level left.

Assay [2] deals with Bursaphelenchus xylophilus. The assay can be described thus: Nematicidal activity against Bursaphelenchus xylophilus in pot-grown three-year-old trees of Pinus densiflora assessed as reduction of disease incidence at 2% treated 3 months before inoculation measured after 9 months by measuring dead trees. Format: functional. The arrangement: scale not given: the % may be the effect or the level left.

Assay [3] concerns Bursaphelenchus xylophilus. Description: Nematicidal activity against Bursaphelenchus xylophilus assessed as mortality at 0.34 mg/l after 48 hr. It is filed as functional.
In assay [4] the test system is Bursaphelenchus xylophilus. Description: Nematicidal activity against Bursaphelenchus xylophilus in pot-grown three-year-old trees of Pinus densiflora assessed as reduction of disease incidence at 3.6 mg/seedlings treated 7 days before inoculation measured after 1 month by measuring dead seedling under greenhouse condition relative to control. Format: functional. The arrangement: scale not given: the % may be the effect or the level left.

Assay [5] relates to Bursaphelenchus xylophilus. The assay can be described thus: Nematicidal activity against Bursaphelenchus xylophilus in pot-grown three-year-old trees of Pinus densiflora assessed as reduction of disease incidence at 3.6 mg/seedlings treated 7 days before inoculation measured after 1 month by measuring dead seedling under greenhouse condition. It is filed as functional. On the set-up: scale not given: the % may be the effect or the level left.

Assay [6] has as its system Bursaphelenchus xylophilus. Description: Nematicidal activity against Bursaphelenchus xylophilus in pot-grown three-year-old trees of Pinus densiflora assessed as reduction of disease incidence at 10% treated 3 months before inoculation measured after 9 months by measuring dead trees relative to control. Format: functional. On the set-up: scale not given: the % may be the effect or the level left.

Assay [7] concerns Bursaphelenchus xylophilus. Description: Nematicidal activity against Bursaphelenchus xylophilus in pot-grown three-year-old trees of Pinus densiflora assessed as reduction of disease incidence at 10% treated 3 months before inoculation measured after 9 months by measuring dead trees. It is filed as functional. On the set-up: scale not given: the % may be the effect or the level left.

For assay [8], the system named is Bursaphelenchus xylophilus. Description: Nematicidal activity against Bursaphelenchus xylophilus assessed as mortality at 10 mg/l after 48 hr. Format: functional.
Another assay deals with Ewingella americana. Description: Antibacterial activity against Ewingella americana KRICT5 at 1.6 mg/l after 24 hr. Format: functional, organism-based.
Assay [9] has as its system Peribacillus frigoritolerans. Description: Antibacterial activity against [Brevibacterium] frigoritolerans KRICT2 at 1.6 mg/l after 24 hr. It is filed as functional, organism-based.
Assay [10] concerns Bursaphelenchus xylophilus. The assay can be described thus: Nematicidal activity against Bursaphelenchus xylophilus in pot-grown three-year-old trees of Pinus densiflora assessed as reduction of disease incidence at 30 mg/seedlings treated 7 days before inoculation measured after 1 month by measuring dead seedling under greenhouse condition relative to control. It is filed as functional. On the set-up: scale not given: the % may be the effect or the level left.

The test system of assay [11] is Bursaphelenchus xylophilus. Description: Nematicidal activity against Bursaphelenchus xylophilus in pot-grown three-year-old trees of Pinus densiflora assessed as reduction of disease incidence at 10 mg/seedlings treated 7 days before inoculation measured after 1 month by measuring dead seedling under greenhouse condition relative to control. Format: functional. On the set-up: scale not given: the % may be the effect or the level left.

Assay [12] has as its system Bursaphelenchus xylophilus. Description: Nematicidal activity against Bursaphelenchus xylophilus in pot-grown three-year-old trees of Pinus densiflora assessed as reduction of disease incidence at 3 mg/seedlings treated 7 days before inoculation measured after 1 month by measuring dead seedling under greenhouse condition relative to control. Format: functional. The arrangement: scale not given: the % may be the effect or the level left.

In assay [13] the test system is Bursaphelenchus xylophilus. The assay can be described thus: Nematicidal activity against Bursaphelenchus xylophilus in pot-grown three-year-old trees of Pinus densiflora assessed as reduction of disease incidence at 30 mg/seedlings treated 7 days before inoculation measured after 1 month by measuring dead seedling under greenhouse condition. Format: functional. The arrangement: scale not given: the % may be the effect or the level left.

The subject of assay [14] is Bursaphelenchus xylophilus. Description: Nematicidal activity against Bursaphelenchus xylophilus in pot-grown three-year-old trees of Pinus densiflora assessed as reduction of disease incidence at 10 mg/seedlings treated 7 days before inoculation measured after 1 month by measuring dead seedling under greenhouse condition. Format: functional. On the set-up: scale not given: the % may be the effect or the level left.

Assay [15] has as its system Bursaphelenchus xylophilus. Description: Nematicidal activity against Bursaphelenchus xylophilus in pot-grown three-year-old trees of Pinus densiflora assessed as reduction of disease incidence at 3 mg/seedlings treated 7 days before inoculation measured after 1 month by measuring dead seedling under greenhouse condition. Format: functional. On the set-up: scale not given: the % may be the effect or the level left.

The source made the active and inactive calls. The rule behind the calls is not given here.

Consider `CN(C)[C@@H]1C(O)=C(C(N)=O)C(=O)[C@@]2(O)C(O)=C3C(=O)c4c(O)cccc4[C@@](C)(O)[C@H]3[C@H](O)[C@@H]12`, for which the result in the assay on Enterobacter asburiae and in the assay on Serratia marcescens was Active.
Regarding `CC[C@H](C)[C@H]1O[C@]2(C=C[C@@H]1C)C[C@@H]1C[C@@H](C/C=C(\C)[C@@H](O[C@H]3C[C@H](OC)[C@@H](O[C@H]4C[C@H](OC)[C@@H](O)[C@H](C)O4)[C@H](C)O3)[C@@H](C)/C=C/C=C3\CO[C@@H]4[C@H](O)C(C)=C[C@@H](C(=O)O1)[C@]34O)O2.CO[C@H]1C[C@H](O[C@H]2[C@H](C)O[C@@H](O[C@@H]3/C(C)=C/C[C@@H]4C[C@@H](C[C@]5(C=C[C@H](C)[C@@H](C(C)C)O5)O4)OC(=O)[C@@H]4C=C(C)[C@@H](O)[C@H]5OC/C(=C\C=C\[C@@H]3C)[C@]54O)C[C@@H]2OC)O[C@@H](C)[C@@H]1O` [ABAMECTIN], the Activity was found to be 93% in [1]; 6.7% in assay [2]; 90% in assay [3]; 71% in assay [4]; 20% in [5].
As to `CCn1cc(C(=O)O)c(=O)c2cc3c(cc21)OCO3` [OXOLINIC ACID], the Activity in assay [6] is 74%; in [7], 23.3%; in assay [8] it was 22%; in assay [10] it was 57%; in assay [11], 57%; in assay [12], 71%. In addition, the Activity in assay [13] stood at 30%; in assay [14] it was 30%; in assay [15], 20%. In addition, the outcome (in the assay with Serratia marcescens; in the assay with Ewingella americana; in assay [9]) was Active.
